Laboratory results taken from patent US20080262011A1, “Modulator” (priority 2004, published 2008).

biological target: T1, CB1 receptors (Rattus norvegicus, UniProt P20272); experiment: Radioligand binding assay: displacement of [3H]SR141716A from rat cerebellar homogenates; details: not given
T1 construct: cerebellar membranes (400 μg wet weight per tube) were thoroughly mixed in a final volume of 0.5 mL; from tissue; host or cells: rat cerebellum (Male Wistar rats), membrane homogenate
Protocol: SR141716A from rat cerebellar homogenates. […] (M).
Radioligand binding assays provide a simple measure of activity at the CB1 receptors. For functional activity, the vas deferens or cyclic 3′,5′-adenosine monophosphate (cAMP) assays described below are used. The assays are carried out with a protocol modified from the literature using the CB1 receptor antagonist [^3H] SR141716A (0.5 nM) in rat brain membranes. Male Wistar rats (150-200 g), which were allowed free access to food and water, were used. Briefly, animals were killed by cervical dislocation and cerebella dissected into ice-cold 0.25 M sucrose. Homogenates were prepared by suspension of cerebella in ice-cold 50 mM, pH 7.4 HEPES (assay) buffer using an Ultra-Turrax™ homogeniser. Homogenates were subsequently centrifuged at 45,000 rpm for 15 min at 4° C., and re-suspended in fresh ice-cold assay buffer to give a final concentration of 1 mg/mL wet weight. Compounds under test were dissolved in dimethyl sulfoxide (DMSO) and transferred to 14 mL polypropylene test tubes. [^3H] SR141617A {final concentration of approximately 0.5 nM prepared in assay buffer containing 0.1% v/v tris(2-butoxyethyl)phosphate} and cerebellar membranes (400 μg wet weight per tube) were thoroughly mixed in a final volume of 0.5 mL and incubated for 1 h at 37° C. The tubes were transferred to a Brandel filtration apparatus, 5 mL ice-cold assay buffer added, and the tube contents vacuum-aspirated through Whatman GF/C glass fibre filters. A further 5 mL of ice-cold wash buffer was added to tubes and the wash/vacuum cycle repeated a further three times. The filters were transferred to plastic Mini-PolyQ™ vials, Picofluor™ liquid scintillant added, and radioactivity (dpm) was quantified using a Beckman LS6000 Liquid Scintillation Counter. The concentrations of competing ligand (test compounds) to produce 50% displacement of the radioligand (IC50) from specific binding sites were computed using Origin™, by fitting total bound ligand (y-axis as dpm) against compound concentration (x-axis, log 10[x] as M) to the logistic equation y=a+b/[1+exp{−c(x−IC50)}]. Where a=lower asymptote, b=specific bound and c=slope function.

T1 sequence (P20272 whole entry): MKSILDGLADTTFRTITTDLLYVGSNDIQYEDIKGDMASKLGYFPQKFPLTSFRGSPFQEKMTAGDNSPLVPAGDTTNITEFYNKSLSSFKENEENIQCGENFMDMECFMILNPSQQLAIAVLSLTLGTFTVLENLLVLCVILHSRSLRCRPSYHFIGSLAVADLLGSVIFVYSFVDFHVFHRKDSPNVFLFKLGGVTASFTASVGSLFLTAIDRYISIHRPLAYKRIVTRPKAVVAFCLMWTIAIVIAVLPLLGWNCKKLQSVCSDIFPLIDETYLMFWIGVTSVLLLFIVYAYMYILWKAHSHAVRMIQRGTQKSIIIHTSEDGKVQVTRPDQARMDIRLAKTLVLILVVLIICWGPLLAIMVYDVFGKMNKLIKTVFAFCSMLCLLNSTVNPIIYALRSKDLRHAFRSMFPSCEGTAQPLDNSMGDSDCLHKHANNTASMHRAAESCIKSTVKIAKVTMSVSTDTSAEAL

Row | SMILES | IC50 [nM]
1 | CCCCCCC(C)(C)c1ccc(-c2cc(Cl)cc(Cl)c2)c(O)c1 [VSN28, 3′,5′-Dichloro-4-(1,1-dimethylheptyl)-1,1′-biphenyl-2-ol] | 2200
2 | CCCCCCC(C)(C)c1ccc(-c2cc(C)cc(C)c2)c(O)c1 [VSN29, 3′,5′-Dimethyl-4-(1,1-dimethylheptyl)-1,1′-biphenyl-2-ol] | 200
3 | CCCCCCC(C)(C)c1ccc(-c2cccc(CO)c2)c(O)c1 [VSN31, 4-(1,1-Dimethylheptyl)-3′-(hydroxymethyl)-1,1′-biphenyl-2-ol] | 1600
4 | CCCCCCC(C)(C)c1ccc(-c2cccc(NC(C)=O)c2)c(O)c1 [VSN30, N-[4′-(1,1-dimethylheptyl)-2′-hydroxy-1,1′-biphenyl-3-yl]-acetamide] | 24600
5 | CCCCCCC(C)(C)c1ccc(-c2ccncc2)c(O)c1 [VSN27, 5-(1,1-Dimethylheptyl)-2-pyridin-4-yl phenol] | 1600
6 | CCCCCCC(C)(C)c1ccc(-c2cccc(O)c2)c(O)c1 [VSN13, 4-(1,1-Dimethylheptyl)-1,1′-biphenyl-2,3′-diol] | 1500
7 | CCCCCCC(C)(C)c1ccc(-c2cccnc2)c(O)c1 [VSN26, 5-(1,1-Dimethylheptyl)-2-pyridin-3-yl phenol] | 3600

same assay, conditions: displacement of [3H]SR141716A (0.5 nM), rat cerebellar membranes; read-out: IC50

Row | SMILES | IC50 [nM]
8 | CN(C)C(=O)CCCCC(C)(C)c1ccc(-c2cccc(O)c2)c(O)c1 [VSN32] | 500

biological target: T2, central CB1 receptors (Mus musculus, UniProt P47746); experiment: Psychotropic activity: adverse cannabimimetic (tetrad) effects in mice; details: in vivo, FIG. 6 legend
T2 construct: from tissue; host or cells: whole animal (normal mice), CNS
Protocol: Many CB1 agonists are known to induce psychotropic associated “tetrad effects” due to central binding to CB receptors [Howlett, A. C. et al, International Union of Pharmacology. XXVII, Pharmacol. Rev. 2002, 54, 161-202]. Studies were undertaken to investigate whether the compounds of the present invention also bound to central CB1 receptors. This is assessed by measuring the ability of the compounds to induce sedation, ptosis, hypomotility, catalepsy and hypothermia in normal mice [Brooks, J. W. et al, Eur. J. Pharmacol. 2002, 439, 83-92], following i.v., i.p. and oral administration.

T2 sequence (P47746 whole entry): as the sequence (P20272 whole entry) above, with E95D counted along it

Row | SMILES | adverse cannabimimetic effects
9 | CCCCCCC(C)(C)c1ccc(-c2cccc(O)c2)c(O)c1 [VSN13, 4-(1,1-Dimethylheptyl)-1,1′-biphenyl-2,3′-diol] | does not exhibit adverse cannabimimetic effects
